One assay addresses Drp1 (Homo sapiens, UniProt O00429). Put plainly: Drp1 GTP hydrolysis in vitro. It counts as biochemical. An excerpt: Drp1 GTP hydrolysis was monitored as a function of time as described previously.
The target in another assay is T1, ATAD3A (Homo sapiens, UniProt Q9NVI7, K135E).
T1 construct: expressed in transfected cells; host or cells: HEK293 cells
T1 sequence (Q9NVI7 51-586 K135E limits assumed): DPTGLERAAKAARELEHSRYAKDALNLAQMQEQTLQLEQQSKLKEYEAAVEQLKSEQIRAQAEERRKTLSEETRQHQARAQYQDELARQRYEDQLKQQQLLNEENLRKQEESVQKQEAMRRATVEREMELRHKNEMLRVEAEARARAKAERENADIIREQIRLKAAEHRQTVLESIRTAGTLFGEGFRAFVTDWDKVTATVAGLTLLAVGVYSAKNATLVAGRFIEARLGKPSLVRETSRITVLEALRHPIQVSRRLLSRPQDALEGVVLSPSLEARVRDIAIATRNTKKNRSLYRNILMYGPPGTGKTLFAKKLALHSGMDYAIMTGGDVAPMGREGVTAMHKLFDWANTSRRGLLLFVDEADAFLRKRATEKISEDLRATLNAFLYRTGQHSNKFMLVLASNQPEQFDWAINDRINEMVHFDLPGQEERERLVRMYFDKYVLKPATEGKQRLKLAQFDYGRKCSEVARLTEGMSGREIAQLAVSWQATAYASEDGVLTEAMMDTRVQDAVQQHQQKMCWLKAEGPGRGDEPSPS
Put plainly: ATAD3A dimerization by western blot, HEK293 cells. It counts as cell-based. The text has this:
Human ATAD3A was amplified from HEK293T cDNA samples through standard PCR methods, and then cloned into pCMV-Myc, pcDNA3.1 (+)-Flag, pEGFP-N1 vectors. ATAD3A truncated mutants were constructed using overlap cloning techniques. ATAD3A point mutant K358E, and K135 mutants (K135E, K135R, K135Q, and K135A) and S2S48 mutants were constructed by using QuickChange II Site-Directed Mutagenesis Kit (Agilent Technologies). Drp1 truncated mutants were described in our previous study. Cells were transfected with plasmids using TransIT®-2020 transfection reagent (Minis Bio LLC, Madison, WI) according to manufacturer's instruction.
To analyze dimerization of ATAD3A under non-reducing conditions, the cells or tissues were harvested and lysed with total lysates buffer. An equal amount of proteins was subject to 8% SDS-PAGE analysis in the presence or absence of β-mercaptoethanol (β-ME). For in vitro BMH crosslinking, the cell lysates were incubated with 1 mM BMH at r.t. for up to 25 min and quenched with 0.1% β-ME, followed by SDS-PAGE analysis. For in-vivo crosslinking, the cells were treated with cell-permeable crosslinker BMH (1 mM) for 20 min at 37° C. After crosslinking, the cells were quenched in PBS with 0.1% β-ME. For DSP crosslinking, the cells were treated with cell-permeable crosslinker for 5 min at 37° C., followed by quenching and washing with 10 mM Glycine in PBS. For formaldehyde (FA) crosslinking, the cells were incubated with PBS buffer containing 1% FA for 20 min at r.t., and the crosslinking reaction was terminated by washing in PBS containing 100 mM glycine. The cells were then lysed and subject to 8% SDS-PAGE analysis. For DTSSP crosslinking of proteins in mitochondrial fractions, isolated mitochondria samples were suspended in the mitochondrial lysis buffer (250 mM sucrose, 20 mM HEPES-NaOH, pH 7.5, 10 mM KCl, 1.5 mM MgCl2, 1 mM EDTA, 1 mM EGTA and protease inhibitor). An equal amount of crude mitochondria was incubated at 30° C. in the presence of 0.5 mM DTSSP. The cross-linking was terminated by the addition of SDS loading buffer. […]
(In western blotting, separated proteins are transferred to a membrane and probed.)

The subject of assay [1] is striatum of R6/2 and YAC128 mice. Put plainly: Western blot of striatal proteins in treated HD mice. The format is in vivo, mouse. To be noted: for TFAM protein level / mtCO2 protein level: striatal mitochondria. As for the experimental part: Cells were washed with cold phosphate-buffered saline (PBS) and incubated on ice in mitochondrial lysis buffer (250 mM sucrose, 20 mM HEPES-NaOH, pH 7.5, 10 mM KCl, 1.5 mM MgCl2, 1 mM EDTA, 1 mM EGTA, protease inhibitor cocktail, and phosphatase inhibitor cocktail) for 30 min. The cells were scraped and then disrupted 15 times by repeated aspiration through a 25-gauge needle. Mouse brains were minced and homogenized in mitochondrial lysis buffer to release mitochondria. The homogenates were spun at 800×g for 10 min at 4° C., and the resulting supernatants were spun at 12,000×g for 20 min at 4° C. The pellets were washed with lysis buffer and spun at 12,000×g again for 20 min at 4° C. The final pellets were suspended in lysis buffer containing 1% Triton X-100 and were mitochondrial-rich lysate fractions. The mitochondrial protein voltage-dependent anion channel (VDAC) was used as a loading control.
Protein concentration was measured by protein assay dye reagents (Bio-rad). The protein was resuspended in Laemmli buffer, loaded on SDS-PAGE, and transferred onto nitrocellulose membranes. Membranes were probed with the indicated antibodies, followed by visualization with ECL. Representative blots have been cropped for presentation.
Systemic peptide treatment in HD mice. All randomization and peptide treatments were prepared by an experimenter not associated with behavioral and neuropathology analysis. Male R6/2 mice (Tg) and their age-matched wild-type littermates (Wt) (6-week-old) were implanted with a 28-day osmotic pump (Alzet, Cupertino CA, Model 2004) containing TAT control peptide or DA1 peptide, which delivered peptides at a rate of 1 mg/kg/day. Male YAC128 mice (Tg) and their age-matched wild-type littermates (WT) were treated with TAT control peptide or DA1 peptide (1 mg/kg/day) by Alzet osmotic pump starting from the age of 3 months. The pump was replaced once every month.

Setting [2] is: YAC128 mice, 12 months old, striatal extracts.

Where no end group is shown, it is not given here.

The text below walks through data of patent US12403184B2, “Compositions and methods for treating neurodegenerative disroders” (priority 2018, dated 2025).

Drp1, sequence (O00429 whole entry): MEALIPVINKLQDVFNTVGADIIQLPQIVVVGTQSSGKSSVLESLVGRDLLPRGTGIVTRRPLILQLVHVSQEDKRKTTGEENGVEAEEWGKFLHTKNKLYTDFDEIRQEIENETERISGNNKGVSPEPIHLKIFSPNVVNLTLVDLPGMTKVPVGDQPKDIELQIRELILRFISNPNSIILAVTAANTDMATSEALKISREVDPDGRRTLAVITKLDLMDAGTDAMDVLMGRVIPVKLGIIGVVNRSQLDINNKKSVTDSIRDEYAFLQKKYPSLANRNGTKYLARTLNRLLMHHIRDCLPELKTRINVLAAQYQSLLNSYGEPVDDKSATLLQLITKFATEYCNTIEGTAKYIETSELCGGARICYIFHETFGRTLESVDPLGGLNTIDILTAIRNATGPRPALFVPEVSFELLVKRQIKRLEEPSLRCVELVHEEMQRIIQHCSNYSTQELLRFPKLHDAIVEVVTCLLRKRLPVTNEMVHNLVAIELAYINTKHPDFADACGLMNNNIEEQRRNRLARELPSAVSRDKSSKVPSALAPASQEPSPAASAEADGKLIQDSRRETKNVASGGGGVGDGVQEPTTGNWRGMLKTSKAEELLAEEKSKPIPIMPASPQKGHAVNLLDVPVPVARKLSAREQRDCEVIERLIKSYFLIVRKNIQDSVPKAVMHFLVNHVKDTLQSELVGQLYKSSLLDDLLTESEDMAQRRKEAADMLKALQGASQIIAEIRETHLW

As for “YGRKKRRQRRRGGEDKRKT-NH2 [DA1, YGRKKRRQRRR-GG-EDKRKT-NH2]”, the “Drp1 oligomerization-induced GTPase activity” value on Drp1 is “no effects”. In addition, the “dimerization of ATAD3A” value on ATAD3A (HEK293 cells expressing ATAD3A acetyl-deficient mutant K135E) is given as “abolished”; on ATAD3A (HEK293 cells expressing ATAD3A ΔN50 mutant, 1 μM for 48 h) it was “abolished”; at ATAD3A (normal cells or cells expressing ATAD3A wildtype), “minor effect”. Also, the TFAM protein level entry in assay [1] (R6/2 mice, 12 weeks old) is “corrected”; in assay [1] (YAC128 mice, 6 months old), “corrected”. In addition, the mtCO2 protein level entry in assay [1] (R6/2 mice, 12 weeks old) is reported as “corrected”; in assay [1] (YAC128 mice, 6 months old), “corrected”. In addition, the nuclear-encoded mitochondrial proteins result in assay [1] (YAC128 and wildtype mice, 6 months old, striatal mitochondrial lysates) was “no observable effects”. Also, in assay [1] (setting [2]), the DARPP-32 protein level result is listed as “increased”. The PSD95 protein level entry in assay [1] (setting [2]) is “increased”. Besides, the PGC1α protein levels result in assay [1] (YAC128 mouse striatum, until 12 months of age) is on record as “increased”.
